What was measured:
[1] = system: K562; test: Cytotoxicity, Ph+ CML model cell line; assay type: cell-based; conditions: Homo sapiens, read-out: IC50 (toxicity)
[2] = target: P38a/MAPK14 (Homo sapiens, UniProt Q16539); test: Human kinase panel at 100 nM; assay type: biochemical
[3] = system: BaF3/BCR-ABL; test: Toxicity to transduced BaF3 model tumor cell line; assay type: cell-based, murine; conditions: Mus musculus
[4] = system: BV-173; test: Cytotoxicity, Ph+ CML model cell line; assay type: cell-based; conditions: Homo sapiens, read-out: IC50 (toxicity)
[5] = system: marrow cells obtained from C57BL/6N line mice with induced acute leukemia; test: Acute leukemia mouse model; assay type: in vivo; conditions: oral, 40 mg/kg (34 mg/kg as free base), 2 weeks
Protocol: To induce the pathology, marrow cells obtained from C57BL/6N line mice with induced acute leukemia were used. Cells were injected to the tail vein of an animal following administration of a sub lethal dose of radiation. Therapy was initiated on the 5th day after pathology induction and continued for 2 weeks.

[6] = system: CCRF-CEM; test: Cytotoxicity, acute lymphoblastic leukemia line; assay type: cell-based, human
[7] = system: EL4; test: Cytotoxicity, lymphoma line; assay type: cell-based, human
[8] = system: Guinea pigs and mice; test: Allergenic properties (anaphylaxis, ITH, DTH and related models); assay type: in vivo, Guinea pig; mice; conditions: all models studied
From the text: To identify allergenic properties, the following methods were used: evaluation of anaphylactogenic activity using Guinea pig general systemic anaphylaxis and active cutaneous anaphylaxis models; evaluation of immediate-type hypersensitivity (ITH) reaction and delayed-type hypersensitivity (DTH) reaction in Guinea pigs following epicutaneous and conjunctival drug application; evaluation of DTH reaction in mice; study of the inflammation reaction to A concanavalin in mice; measuring of eosinophil blood count, evaluation of the effect on phagocyte neutrophil activity (Nitro Blue-Tetrazolium Test (NBT)), and leukocyte specific lysis reaction scenario using a Guinea pig model with subcutaneous administration of the drug.

[9] = Stability of polymorph modifications, suspending in acetone for 6 days; assay type: physicochemical
Protocol: Crystallinity of all samples obtained was studied using the method of X-ray powder diffraction (to study the crystallinity structure). Diffraction patterns were obtained at a temperature of 25° C. […] Survey step 0.02° 2θ, angle range 3-45° 2θ. Diffraction patterns obtained were studied in detail using X'Pert HighScore Plus software package.

[10] = target: potassium hERG channel (Homo sapiens, UniProt Q12809); test: Effect on the ion hERG channel; assay type: cell-based; conditions: tested at 0.1-10 μM, mesylate salt
Sequence of potassium hERG channel (Q12809 whole entry): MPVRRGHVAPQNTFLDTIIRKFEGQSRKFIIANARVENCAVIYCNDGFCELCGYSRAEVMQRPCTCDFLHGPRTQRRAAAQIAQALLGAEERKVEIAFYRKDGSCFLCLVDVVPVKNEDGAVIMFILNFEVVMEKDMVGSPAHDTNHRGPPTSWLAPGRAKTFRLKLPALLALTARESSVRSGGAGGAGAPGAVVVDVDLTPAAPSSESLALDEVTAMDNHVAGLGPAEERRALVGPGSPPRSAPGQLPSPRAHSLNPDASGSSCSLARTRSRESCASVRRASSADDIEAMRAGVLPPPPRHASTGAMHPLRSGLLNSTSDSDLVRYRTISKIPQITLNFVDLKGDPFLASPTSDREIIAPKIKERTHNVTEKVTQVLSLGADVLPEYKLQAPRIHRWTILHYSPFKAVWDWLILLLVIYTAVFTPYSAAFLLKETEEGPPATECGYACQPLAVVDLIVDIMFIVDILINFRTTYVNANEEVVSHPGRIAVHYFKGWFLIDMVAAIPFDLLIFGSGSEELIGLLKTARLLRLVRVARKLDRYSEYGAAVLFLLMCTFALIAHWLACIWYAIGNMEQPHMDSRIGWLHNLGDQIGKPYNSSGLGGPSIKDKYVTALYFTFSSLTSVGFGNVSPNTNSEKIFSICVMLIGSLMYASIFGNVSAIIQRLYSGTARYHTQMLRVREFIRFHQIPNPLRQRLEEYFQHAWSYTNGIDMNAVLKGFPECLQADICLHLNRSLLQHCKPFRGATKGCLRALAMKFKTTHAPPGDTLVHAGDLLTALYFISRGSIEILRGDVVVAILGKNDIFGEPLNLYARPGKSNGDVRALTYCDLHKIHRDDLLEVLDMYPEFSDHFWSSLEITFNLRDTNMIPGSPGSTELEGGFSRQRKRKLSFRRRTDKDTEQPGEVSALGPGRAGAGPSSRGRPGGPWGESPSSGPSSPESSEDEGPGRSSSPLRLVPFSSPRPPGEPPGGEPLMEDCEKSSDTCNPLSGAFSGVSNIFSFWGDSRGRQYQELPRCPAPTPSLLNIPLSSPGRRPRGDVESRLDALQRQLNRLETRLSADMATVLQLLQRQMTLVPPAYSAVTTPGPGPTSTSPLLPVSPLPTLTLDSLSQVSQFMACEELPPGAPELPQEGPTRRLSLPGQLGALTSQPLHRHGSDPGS

[11] = system: BaF3/BCR-ABL T315I; test: Toxicity to transduced BaF3 model tumor cell line; assay type: cell-based, murine; conditions: Mus musculus
[12] = target: Bcr-Abl (M351T) (Homo sapiens, UniProt P00519, M351T, form not given); test: Bcr-Abl tyrosine kinase enzyme activity
[13] = target: RIPK3 (Homo sapiens, UniProt Q9Y572); test: Human kinase panel at 100 nM; assay type: biochemical
Sequence of RIPK3 (Q9Y572 whole entry): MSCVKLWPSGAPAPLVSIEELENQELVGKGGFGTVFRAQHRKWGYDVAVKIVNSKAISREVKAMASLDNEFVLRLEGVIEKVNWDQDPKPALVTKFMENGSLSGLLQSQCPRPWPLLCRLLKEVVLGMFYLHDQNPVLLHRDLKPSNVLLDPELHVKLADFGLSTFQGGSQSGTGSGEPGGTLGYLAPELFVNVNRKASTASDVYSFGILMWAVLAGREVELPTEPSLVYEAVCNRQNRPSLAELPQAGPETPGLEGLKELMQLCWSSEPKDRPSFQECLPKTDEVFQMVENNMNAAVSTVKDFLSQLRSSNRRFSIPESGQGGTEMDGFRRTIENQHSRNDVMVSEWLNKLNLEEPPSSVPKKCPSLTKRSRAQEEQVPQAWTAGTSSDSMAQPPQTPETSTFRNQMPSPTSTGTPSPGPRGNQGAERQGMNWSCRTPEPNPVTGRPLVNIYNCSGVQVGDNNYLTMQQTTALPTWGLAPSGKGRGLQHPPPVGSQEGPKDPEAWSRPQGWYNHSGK

[14] = target: EPHA2 (Homo sapiens, UniProt P29317); test: Human kinase panel at 100 nM; assay type: biochemical
Sequence of EPHA2 (P29317 24-976): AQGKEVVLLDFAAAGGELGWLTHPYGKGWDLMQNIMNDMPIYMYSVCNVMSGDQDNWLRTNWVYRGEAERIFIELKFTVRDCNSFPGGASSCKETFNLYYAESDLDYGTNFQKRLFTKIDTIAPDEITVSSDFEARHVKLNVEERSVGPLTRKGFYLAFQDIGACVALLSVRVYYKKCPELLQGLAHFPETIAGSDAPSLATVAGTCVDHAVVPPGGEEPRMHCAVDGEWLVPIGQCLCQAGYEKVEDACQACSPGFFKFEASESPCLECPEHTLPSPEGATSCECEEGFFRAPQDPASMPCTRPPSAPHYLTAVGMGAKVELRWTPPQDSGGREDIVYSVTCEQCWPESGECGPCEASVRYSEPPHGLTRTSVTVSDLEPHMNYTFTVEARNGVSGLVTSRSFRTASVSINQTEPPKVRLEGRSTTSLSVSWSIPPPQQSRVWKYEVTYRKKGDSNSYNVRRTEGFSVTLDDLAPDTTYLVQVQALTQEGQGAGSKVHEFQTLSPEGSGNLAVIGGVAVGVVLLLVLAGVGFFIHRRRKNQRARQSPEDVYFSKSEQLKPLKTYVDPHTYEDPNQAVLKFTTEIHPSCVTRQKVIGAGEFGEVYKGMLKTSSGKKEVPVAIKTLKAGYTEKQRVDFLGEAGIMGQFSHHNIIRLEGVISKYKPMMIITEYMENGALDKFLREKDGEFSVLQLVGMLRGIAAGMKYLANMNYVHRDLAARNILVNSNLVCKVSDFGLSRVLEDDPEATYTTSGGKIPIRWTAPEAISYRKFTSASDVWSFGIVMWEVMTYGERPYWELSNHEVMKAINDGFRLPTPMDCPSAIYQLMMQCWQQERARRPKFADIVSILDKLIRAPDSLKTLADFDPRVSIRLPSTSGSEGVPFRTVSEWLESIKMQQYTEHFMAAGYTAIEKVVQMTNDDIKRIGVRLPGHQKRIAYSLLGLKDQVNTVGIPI

[15] = target: CYP2C8 (Homo sapiens, UniProt P10632); test: Metabolism study using cytochrome enzyme drugs; assay type: in vitro ADME; conditions: 2C8
Sequence of CYP2C8 (P10632 whole entry): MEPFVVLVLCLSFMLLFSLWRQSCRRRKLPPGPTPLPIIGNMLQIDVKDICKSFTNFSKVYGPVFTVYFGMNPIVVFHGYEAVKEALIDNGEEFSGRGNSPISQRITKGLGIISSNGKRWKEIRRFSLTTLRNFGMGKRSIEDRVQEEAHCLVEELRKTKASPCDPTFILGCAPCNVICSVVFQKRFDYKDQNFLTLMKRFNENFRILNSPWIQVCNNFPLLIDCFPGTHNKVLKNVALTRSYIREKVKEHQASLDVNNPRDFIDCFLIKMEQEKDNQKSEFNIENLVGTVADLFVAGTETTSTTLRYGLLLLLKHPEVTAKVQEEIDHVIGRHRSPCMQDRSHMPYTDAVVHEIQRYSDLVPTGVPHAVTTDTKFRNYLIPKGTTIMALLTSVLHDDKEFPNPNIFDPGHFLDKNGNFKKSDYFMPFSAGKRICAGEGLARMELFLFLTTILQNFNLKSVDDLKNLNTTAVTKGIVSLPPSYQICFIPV

[16] = in vivo; parameters: species or system C57BL/6 line mice; conditions: mouse, plasma; mesylate polymorphous modification I 59 mg/kg (50 mg/kg as free base), single oral, C57BL/6 mice; read-out: Cmax
Protocol: FIGS. 52A-52B. […] The mean values were determined for each time point on the basis of the individual data obtained from three animals.
The results of the study are given in FIG. 52 and in Tables 14 and 15.

Sequence of P38a/MAPK14 (Q16539 whole entry): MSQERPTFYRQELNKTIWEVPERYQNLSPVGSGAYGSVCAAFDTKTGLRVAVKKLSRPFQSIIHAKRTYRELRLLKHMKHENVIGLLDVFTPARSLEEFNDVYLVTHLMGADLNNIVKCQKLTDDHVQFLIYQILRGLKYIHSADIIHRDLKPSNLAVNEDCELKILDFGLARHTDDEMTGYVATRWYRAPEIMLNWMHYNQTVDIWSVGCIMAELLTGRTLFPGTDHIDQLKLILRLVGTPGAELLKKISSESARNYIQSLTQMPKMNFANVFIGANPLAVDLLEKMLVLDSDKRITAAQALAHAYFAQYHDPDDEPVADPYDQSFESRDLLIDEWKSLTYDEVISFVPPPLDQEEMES

Question: Which IC50 [1] does the source give for CS(=O)(=O)O.Cc1ccc(C(=O)Nc2ccc(CN3CCN(C)CC3)c(C(F)(F)F)c2)cc1C#Cc1nnc2ccccn12 [methanesulfonic acid salt, 3-(1,2,4-triazolo[4,3-a]pyridine-3-ylethynyl)-4-methyl-N-(4-((4-methylpiperazin-1-yl)methyl)-3-trifluoromethylphenyl)benzamide mono methanesulfonic acid salt] here?
Answer: 8 nM

Question: And the inhibition at 0.1 µM [2]?
Answer: > 50%

Question: And the IC50 [3]?
Answer: 5 nM

Question: What about the IC50 [4] of the same compound?
Answer: 5 nM

Question: And the “increase of average lives compared to the control group” value [5]?
Answer: more than 25%

Question: And the cytotoxicity [6]?
Answer: showed cytotoxicity

Question: And the cytotoxicity [7]?
Answer: showed cytotoxicity

Question: What about the allergenic activity [8] of the same compound?
Answer: did not display any detectable allergenic activity

Question: What about the “crystalline structure after suspending in acetone” value ([9]; acetone, 6 days) of the same compound?
Answer: remained unchanged

Question: And the “Crystallinity in 6 days” value ([9]; suspending in acetone for 6 days, room temperature)?
Answer: Cryst.

Question: And the IC50 [10]?
Answer: 7800 nM

Question: And the IC50 [11]?
Answer: 75 nM

Question: What about the IC50 [12] of the same compound?
Answer: 2.8 nM

Question: And the inhibition at 0.1 µM [13]?
Answer: > 50%

Question: And the inhibition at 0.1 µM [14]?
Answer: > 50%

Question: And the “participation of the isoform in metabolism” value [15]?
Answer: does not involve

Question: And the Cmax [16]?
Answer: 1100 ng/mL

Source: US11225474B2, “Crystalline salt forms of 3-(1,2,4-triazolo[4,3-a]pyridine-3-ylethynyl)-4-methyl-N-(4-((4-methylpiperazin-1-yl)methyl)-3-trifluoromethylphenyl)benzamide for medical application” (priority 2016, dated 2022)
